Assay results reported in patent US10130096B2, “Method for protecting useful plants or plant propagation material” (SYNGENTA PARTICIPATIONS AG, priority 2011, dated 2018).

Assays:
Pythium ultimum [1] = test: Example B-5: seed treatment against Pythium ultimum on cotton; type: in vivo; settings: Globisporangium ultimum, rate of 200 g/100 kg seeds, infested soil, number of germinated, healthy plants
Method: The trial is kept for 1 week in a growth room at 20° C. and darkness. After this period the trial is transferred to a greenhouse where a temperature of 21° C. and a 14 h light period is provided until the trial is finished. The following assessments are made: number of germinated, healthy plants. Each number is determined for 150 seeds per treatment (3 replicates a 50 seeds).

Alternaria solani = Alternaria solani on tomato plants; type: in vivo; settings: 4-week old tomato plants cv. Roter Gnom, spray, inoculated two days after application
Method: 4-week old tomato plants cv. Roter Gnom are sprayed in a spray chamber with the formulated test compound diluted in water. The test plants are inoculated by spraying them with a spore suspension two days after application. The inoculated test plants are incubated at 22/18° C. (day/night) and 95% rh in a greenhouse and the percentage leaf area covered by disease is assessed when an appropriate level of disease appears on untreated check plants (5-7 days after application).

Fusarium culmorum = Fusarium culmorum liquid culture growth inhibition; type: cell-based; settings: photometric, 3-4 days after application, read-out: control on Fusarium culmorum
Method: (§1) Conidia of the fungus from cryogenic storage are directly mixed into nutrient broth (PDB potato dextrose broth). After placing a (DMSO) solution of test compound into a microtiter plate (96-well format), the nutrient broth containing the fungal spores is added. The test plates are incubated at 24° C. and the inhibition of growth is determined photometrically 3-4 days after application.

[2] = system: Botryotinia fuckeliana (Botrytis cinerea); test: Botryotinia fuckeliana liquid culture growth inhibition; type: cell-based; settings: photometric, 3-4 days after application, read-out: control on Botryotinia fuckeliana
Method: Conidia of the fungus from cryogenic storage are directly mixed into nutrient broth (Vogels broth). After placing a (DMSO) solution of test compound into a microtiter plate (96-well format), the nutrient broth containing the fungal spores is added.

Pythium ultimum [3] = test: Pythium ultimum on Cotton/Pouch; type: in vivo; settings: Globisporangium ultimum, 168 h, cotton, pouch, 7 days at 17° C.
From the text: A spore/mycelium suspension is pipetted into the pouch simultaneously.

[4] = system: Thanatephorus cucumeris (Rhizoctonia solani); test: Thanatephorus cucumeris liquid culture growth inhibition; type: cell-based; settings: photometric, 3-4 days after application, read-out: control on Thanatephorus cucumeris
Method: Mycelia fragments of a newly grown liquid culture of the fungus are directly mixed into nutrient broth (PDB potato dextrose broth). After placing a (DMSO) solution of the test compounds into a microtiter plate (96-well format), the nutrient broth containing the fungal material is added. The test plates are incubated at 24° C. and the inhibition of growth is determined photometrically 3-4 days after application.

[5] = system: Glomerella lagenarium (Colletotrichum lagenarium); test: Glomerella lagenarium liquid culture growth inhibition; type: cell-based; settings: Colletotrichum orbiculare, photometric, 3-4 days after application, read-out: control on Glomerella lagenarium
Method: (§2) Conidia of the fungus from cryogenic storage are directly mixed into nutrient broth (PDB potato dextrose broth). After placing a (DMSO) solution of test compound into a microtiter plate (96-well format), the nutrient broth containing the fungal spores is added.

Pythium ultimum [6] = test: Pythium ultimum liquid culture growth inhibition; type: cell-based; settings: Globisporangium ultimum, photometric, 2-3 days after application, read-out: control on Pythium ultimum
Method: as §2, with “Mycelia fragments and oospores of a newly grown liquid culture” for “Conidia”, “fungus” for “fungus from cryogenic storage”, “mycelia/spore mixture” for “spores”

[7] = system: Monographella nivalis (Microdochium nivale); test: Monographella nivalis liquid culture growth inhibition; type: cell-based; settings: photometric, 4-5 days after application, read-out: control on Monographella nivalis
Method: as §1, with “4-5” for “3-4”

[8] = system: Mycosphaerella arachidis (Cercospora arachidicola); test: Mycosphaerella arachidis liquid culture growth inhibition; type: cell-based; settings: photometric, 4-5 days after application, read-out: control on Mycosphaerella arachidis
Method: as §2

[9] = system: Pseudoperonospora cubensis; test: Pseudoperonospora cubensis on Cucumber/Pouch; type: in vivo; settings: 60 ppm; cucumber, pouch, inoculated 8 days after sowing, 7 days incubation
From the text: 8 days after sowing cucumber plants were inoculated by spraying a spore suspension on the test plants.

Puccinia recondita = Puccinia recondita on Wheat/Pouch; type: in vivo; settings: 20 ppm; wheat, pouch, inoculated 8 days after sowing, 8 days incubation
Method: 8 days after sowing wheat plants were inoculated by spraying a spore suspension on the test plants. After an incubation period of 8 days at 24° C./22° C.

CCC(N)COB1OCc2cc(Cl)ccc21 (centres unmarked) [Compound 2, 1-(5-Chloro-3H-benzo[c][1,2]oxaborol-1-yloxymethyl)-propylamine] showed a pest or weed control at 200 g/100 kg seeds (Pythium ultimum [1]) of at least 50%, a pest or weed control at 60 ppm (Alternaria solani) of at least 60% and an inhibition of growth at 200 ppm (Fusarium culmorum) of at least 80%. The inhibition of growth at 200 ppm [2] was at least 80%, the pest or weed control at 20 ppm (Pythium ultimum [3]) was at least 50% and the inhibition of growth at 200 ppm [4] was at least 80%. For the same compound, the inhibition of growth at 200 ppm [5] was at least 80%, the inhibition of growth at 200 ppm (Pythium ultimum [6]) was at least 80% and the inhibition of growth at 200 ppm [7] was at least 80%. It also gave an inhibition of growth at 200 ppm [8] of at least 80%.

In the case of NCCCOB1OCc2cc(Cl)ccc21 [Compound 5, 3-(5-Chloro-3H-benzo[c][1,2]oxaborol-1-yloxy)-propylamine], the pest or weed control at 200 g/100 kg seeds (Pythium ultimum [1]) is reported as at least 50%, the pest or weed control at 60 ppm (Alternaria solani) is reported as at least 60% and the inhibition of growth at 200 ppm (Fusarium culmorum) is reported as at least 80%. The inhibition of growth at 200 ppm [2] was at least 80%, the pest or weed control at 20 ppm (Pythium ultimum [3]) was at least 50% and the inhibition of growth at 200 ppm [4] was at least 80%. For the same compound, the inhibition of growth at 200 ppm [5] was at least 80%, the inhibition of growth at 200 ppm (Pythium ultimum [6]) was at least 80% and the inhibition of growth at 200 ppm [7] was at least 80%. For the same compound, the “control on Pseudoperonospora cubensis” value [9] was “at least 50%” and the inhibition of growth at 200 ppm [8] was at least 80%.

With O=[N+]([O-])c1ccc2c(c1)B(O)OC2 [Compound 7, 6-Nitro-3H-benzo[c][1,2]oxaborol-1-ol] the pest or weed control at 60 ppm (Alternaria solani) was at least 60%, the “control on Puccinia recondita” value (Puccinia recondita) was “at least 50%” and the pest or weed control at 20 ppm (Pythium ultimum [3]) was at least 50%. For the same compound, the inhibition of growth at 200 ppm [5] was at least 80%, the inhibition of growth at 200 ppm (Pythium ultimum [6]) was at least 80% and the inhibition of growth at 200 ppm [7] was at least 80%. It also gave an inhibition of growth at 200 ppm [8] of at least 80%.

In the case of OB1OCc2cc(F)ccc21 [Compound 8, 5-Fluoro-3H-benzo[c][1,2]oxaborol-1-ol], the pest or weed control at 200 g/100 kg seeds (Pythium ultimum [1]) is reported as at least 50%, the pest or weed control at 60 ppm (Alternaria solani) is reported as at least 60% and the inhibition of growth at 200 ppm (Fusarium culmorum) is reported as at least 80%. For the same compound, the inhibition of growth at 200 ppm [2] was at least 80%, the pest or weed control at 20 ppm (Pythium ultimum [3]) was at least 50% and the inhibition of growth at 200 ppm [4] was at least 80%. The inhibition of growth at 200 ppm [5] was at least 80%, the inhibition of growth at 200 ppm (Pythium ultimum [6]) was at least 80% and the inhibition of growth at 200 ppm [7] was at least 80%. It also gave an inhibition of growth at 200 ppm [8] of at least 80%.
